# Patent US11899025B2, “Pharmaceutical composition for preventing or treating neurodegenerative diseases comprising COX2 acetylating agent as active ingredient” (KYUNGPOOK NATIONAL UNIVERSITY INDUSTRY-ACADEMIC COOPERATION …, priority 2018, dated 2024)
# B1: SphK1 (Homo sapiens) (protein)
# chain: MDPAGGPRGVLPRPCRVLVLLNPRGGKGKALQLFRSHVQPLLAEAEISFTLMLTERRNHARELVRSEELGRWDALVVMSGDGLMHEVVNGLMERPDWETAIQKPLCSLPAGSGNALAASLNHYAGYEQVTNEDLLTNCTLLLCRRLLSPMNLLSLHTASGLRLFSVLSLAWGFIADVDLESEKYRRLGEMRFTLGTFLRLAALRTYRGRLAYLPVGRVGSKTPASPVVVQQGPVDAHLVPLEEPVPSHWTVVPDEDFVLVLALLHSHLGSEMFAAPMGRCAAGVMHLFYVRAGVSRAMLLRLFLAMEKGRHMEYECPYLVYVPVVAFRLEPKDGKGVFAVDGELMVSEAVQGQVHPNYFWMVSGCVEPPPSWKPQQMPPPEEPL
# Assays:
# APP/PS1 mice = experiment: Alzheimer's animal model (APP/PS1 mice): immunofluorescence, Thioflavin S, Morris Water Maze; format: in vivo, mouse; conditions: 7-month-old APP/PS1 mice, 5 mg/kg N-acetyl sphingosine, 1 mg/kg FTY720 or 3 uM S1P daily for 4 weeks, intraperitoneal; for microglia (Iba1) in brain cortex vs APP/PS1 mice: FIG. 9a; for astrocytes (GFAP) in brain cortex vs APP/PS1 mice: FIG. 9b; for amount of Aβ / Aβ deposition (Thioflavin S) vs APP/PS1 mice: FIG. 9c; for memory and cognition (Morris Water Maze) vs APP/PS1 mice: FIG. 9d
# Text: It has been approved for mouse experiments by the Kyungpook National University Institutional Animal Care and Use Committee (IACUC). A transgenic mouse line overexpressing APPswe (hAPP695swe) or PS1 (presenilin-1M146V) based on C57BL/6 mice (Charles River, UK) was used. [Hereinafter, APP mouse: mouse overexpressing APPswe, PS1 mouse: mouse overexpressing presenilin-1M146V; GlaxoSmithKline]. As an Alzheimer's (AD) animal model, SphK1 tg (SphK1 gene overexpressing mouse) was crossed with APP mice and APP/PS1 mice to prepare APP/PS1/SphK1 tg mice. Niemanpick (NP-C) animal model, Balb/C (Orient, Wild type), NPC mutant mouse lacking NPC1 gene (Provided by Riken, Japan, NP-C mice; less weight than normal mice of the same age, and severe motor function loss from 4 to 6 weeks of age, limb tremors and seizures appear, and lifespan is approximately 9 to 10 weeks. Is) was used. As an animal model for amyotrophic lateral sclerosis (ALS), a transgenic mouse (FUS) line overexpressing RUS R521C based on C57BL/6 mice (Charles River, UK) was used.
# After fixing the cerebral and hippocampus of the mouse, anti-20G10 (mouse, 1:1000) against amyloid-β (Aβ) 42 and anti-G30 (rabbit, 1:1000) against Aβ 40, anti-MAP2 (chicken, 1:2000), anti-Synaptophysin (mouse, 1:100), anti-Synapsin1 (rabbit, 1:500), anti-PSD95 (mouse, 1:100), anti-Iba-1 (rabbit, 1:500), Anti-GFAP (rabbit, 1:500) was cultured together. The site was analyzed using a laser scanning confocal microscope or Olympus BX51 microscope equipped with Fluoview SV1000 imaging software (Olympus FV1000, Japan). Metamorph software (Molecular Devices) was used to quantify the percentage of the area of the stained area relative to the area of the total tissue.
# In order to confirm the potential effect on learning and memory, MWM (Morris water maze) and fear conditioning experiments were performed. MWM learned the task 4 times a day for 10 days for the mice, the platform was removed on the 11th day, and a probe trial was performed. On the first day of Fear conditioning, the mice were placed in a conditioning chamber, and sound stimulation (10 kHz, 70 dB) and electrical stimulation (0.3 mA, 1 s) were given. On the second day, memory for the space was checked without stimulation in the same conditioning chamber as on the first day, and on the third day, a memory test for fear was performed when only sound stimulation was given in another conditioning chamber. An open field test was performed to evaluate motor ability and immediate activity. In the open field test, the mice were placed in a square box for 10 minutes to measure the overall exercise power, time, and distance.
# (§1) In order to measure the neuroinflammatory resolution factor, after culturing neurons from mouse cerebrum, CM was prepared by treatment with 10 nM N-acetyl sphingosine 1 phosphate (Toronto Research chemicals, C262710) and N-acetyl sphingosine (Sigma, 01912). For COX2 acetylation analysis, neurons were cultured from mouse cerebrum and then treated with 2 uCi [^14C]N-acetyl sphingosine (ARC, ARC1024). In addition, for in vivo experiments, 7-month-old APP/PS1 mice were injected with 5 mg/kg N-acetyl sphingosine (Sigma, 01912), 1 mg/kg FTY720 and 3 uM S1P daily for 4 weeks via intraperitoneal injection. 1 month-old NPC mice were injected with 5 mg/kg N-acetyl sphingosine (Sigma, 01912) and 2-month-old FUS mice with 30 mg/kg N-acetyl sphingosine (Sigma, 01912) daily for 4 weeks via subcutaneous injection.
# The present inventors confirmed AD lesions by injecting N-acetyl sphingosine, one of the COX2 acetylating agents identified through the above experiment, into an APP/PS1 animal model. First, in order to determine the effect of N-acetyl sphingosine on the neuroinflammatory response by secreting neuroinflammatory resolution factor, changes in microglia and astrocytes were observed. […]
# APP/PS1 neurons = experiment: neuroinflammatory resolution factor (SPMs) secretion in APP/PS1 neurons after COX2 acetylating agent treatment; format: cell-based, mouse; conditions: 10 nM; FIG. 8b
# Procedure: A commercially available ELISA kit (Biosource) was used, and the hemispheres of mice were homogenized and placed in a buffer containing 0.02M guanidine to prepare a sample for Aβ ELISA. In order to measure the neuroinflammatory resolution factor, conditioned media (CM) was prepared after culturing neurons from mouse cerebrum. Thereafter, according to the manufacturer's manual, ELISA for Aβ and SPM was performed.
# as §1
# First, in order to confirm whether the selected compounds promote the secretion of neuroinflammatory resolution factor in neurons, after treatment with N-acetyl sphingosine 1 phosphate or N-acetyl sphingosine in APP/PS1 neurons, the expression levels of neuroinflammatory resolution factor were confirmed. As a result, it was confirmed that the expression levels of LxA4 and RvE1 in neurons of APP/PS1 mice were recovered when treated with N-acetyl sphingosine 1 phosphate or N-acetyl sphingosine (FIG. 8b).
# SphK1 = SphK1 (Homo sapiens, UniProt Q9NYA1); experiment: dissociation of acetyl-CoA from the acetyl-CoA:SphK1 complex, equilibrium dialysis; format: binding
# [1] = substrate: CC(=O)SCCNC(=O)CCNC(=O)[C@H](O)C(C)(C)COP(=O)(O)OP(=O)(O)OC[C@H]1O[C@@H](n2cnc3c(N)ncnc32)[C@H](O)[C@@H]1OP(=O)(O)O; experiment: purified protein, by the assay type; conditions: other: in the presence of 10 mM sphingosine; [3H]acetyl-CoA; FIG. 1a
Molecule,microglia (Iba1) in brain cortex vs APP/PS1 mice (APP/PS1 mice),astrocytes (GFAP) in brain cortex vs APP/PS1 mice (APP/PS1 mice),amount of Aβ / Aβ deposition (Thioflavin S) vs APP/PS1 mice (APP/PS1 mice),memory and cognition (Morris Water Maze) vs APP/PS1 mice (APP/PS1 mice),other results
CCCCCCCCc1ccc(CCC(N)(CO)CO)cc1 [FTY720],no difference,no difference,no effect,no effect,
CCCCCCCCCCCCC/C=C/[C@@H](O)[C@H](COP(=O)(O)O)NC(C)=O [N-acetyl sphingosine 1 phosphate],,,,,expression level of LxA4 in neurons of APP/PS1 mice (APP/PS1 neurons): recovered; expression level of RvE1 in neurons of APP/PS1 mice (APP/PS1 neurons): recovered
"CCCCCCCCCCCCC/C=C/[C@@H](O)[C@@H](N)COP(=O)(O)O [S1P, sphingosine-1-phosphate]",no difference,no difference,no effect,no effect,
CC(=O)SCCNC(=O)CCNC(=O)[C@H](O)C(C)(C)COP(=O)(O)OP(=O)(O)OC[C@H]1O[C@@H](n2cnc3c(N)ncnc32)[C@H](O)[C@@H]1OP(=O)(O)O [acetyl-CoA],,,,,Kd (SphK1): 6.8 µM
B1,,,,,Km [1]: 58.2 µM; kcat [1]: 0.000308 s⁻¹
